# Measurements published in patent publication US9682148B2, “Solid oral dosage form of testosterone derivative” (Solural Pharma APS, priority 2012, dated 2017).
# Tests used:
# [1] = cited from earlier work
# [2] = Estimate of maximal amount of lymphatic absorbed TU; conditions: estimated: 25% of solubility x 120 mg/g x 3.5 g triglyceride/10 h, formulation of 600 mg fat
# Description: The maximal amount of lymphatic absorbed TU can be estimated from the solubility of Testosterone Undecanoate in triglyceride and the transported triglyceride (Int. J. Pharm., vol. 34, 175-178, 1986).
compound,measurement,setting,value
CCCCCCCCCCC(=O)O[C@H]1CC[C@H]2[C@@H]3CCC4=CC(=O)CC[C@]4(C)[C@H]3CC[C@]12C [Testosterone Undecanoate],solubility in triglyceride,[1],120 mg/g
same,maximal amount of lymphatic absorbed TU,[2],~100 mg
